Key:
PDGF-R = PDGF-R (Homo sapiens, UniProt P09619); assay: PDGF-R ELISA; type: cell-based
Excerpt: A PDGF-R ELISA is described in International Patent Publication No. WO 96/40116, published December 19, 1996 by Tang et al.

EGFR = target: T1, EGFR (Homo sapiens, UniProt P00533); assay: EGFR ELISA assay (in vitro kinase activity, EGFR captured from A431 cell lysate); type: biochemical; set-up: concentration or dose not given beside the values
T1 construct: Add 7 ug A431 cell lysate per well (EGFR source); endogenous in cells; host or cells: A431
T1 sequence (P00533 25-1210): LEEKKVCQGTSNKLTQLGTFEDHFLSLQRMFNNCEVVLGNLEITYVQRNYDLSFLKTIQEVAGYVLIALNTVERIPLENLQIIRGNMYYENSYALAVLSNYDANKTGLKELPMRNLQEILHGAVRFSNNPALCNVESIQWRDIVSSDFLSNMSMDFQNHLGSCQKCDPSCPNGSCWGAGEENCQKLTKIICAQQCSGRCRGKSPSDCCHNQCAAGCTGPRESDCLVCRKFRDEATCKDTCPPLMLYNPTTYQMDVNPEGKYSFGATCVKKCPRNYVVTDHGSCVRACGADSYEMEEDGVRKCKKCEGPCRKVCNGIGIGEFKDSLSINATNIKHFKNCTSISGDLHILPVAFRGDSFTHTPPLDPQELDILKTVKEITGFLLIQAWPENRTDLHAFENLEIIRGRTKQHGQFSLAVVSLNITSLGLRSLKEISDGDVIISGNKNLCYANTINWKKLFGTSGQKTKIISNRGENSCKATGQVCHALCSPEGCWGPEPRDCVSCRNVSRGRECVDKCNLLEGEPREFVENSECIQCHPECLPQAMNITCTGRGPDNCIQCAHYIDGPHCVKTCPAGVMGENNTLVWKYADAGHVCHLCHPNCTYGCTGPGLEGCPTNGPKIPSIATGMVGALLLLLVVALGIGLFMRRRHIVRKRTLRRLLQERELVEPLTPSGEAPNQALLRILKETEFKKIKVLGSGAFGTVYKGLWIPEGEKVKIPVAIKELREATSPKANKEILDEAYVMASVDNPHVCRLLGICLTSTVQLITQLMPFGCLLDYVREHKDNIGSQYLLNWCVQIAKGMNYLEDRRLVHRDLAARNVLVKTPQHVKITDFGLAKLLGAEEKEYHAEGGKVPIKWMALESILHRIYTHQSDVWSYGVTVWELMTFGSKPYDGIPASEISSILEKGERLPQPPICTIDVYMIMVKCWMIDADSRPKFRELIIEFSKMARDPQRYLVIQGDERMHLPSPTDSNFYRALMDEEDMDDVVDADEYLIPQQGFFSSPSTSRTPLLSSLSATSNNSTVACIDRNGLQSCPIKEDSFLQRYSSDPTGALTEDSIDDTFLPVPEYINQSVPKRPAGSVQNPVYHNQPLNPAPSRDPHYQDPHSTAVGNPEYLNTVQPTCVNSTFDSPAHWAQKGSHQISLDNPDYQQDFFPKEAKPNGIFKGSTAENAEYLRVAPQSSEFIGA
Method in brief: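 EGFR from A431 lysate was captured on anti-EGFR antibody-coated plates and preincubated with compounds for 30 min. Autophosphorylation ran 5 min with 3 uM ATP and 5 mM MnCl2 (final), stopped with 20 mM EDTA. Phosphotyrosine was detected by anti-pTyr ELISA with ABTS/H2O2, read at 410 nm.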

MET = MET biochemical kinase assay; set-up: species or system human; concentration or dose not given beside the values
Method in brief: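 Plates coated with anti-rabbit Fc bind a rabbit anti-MET antibody that captures receptor from cell lysates; unbound protein is washed off before compound and ATP-containing kinase buffer go in.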

PDGF-R, sequence (P09619 33-1106, species assumed): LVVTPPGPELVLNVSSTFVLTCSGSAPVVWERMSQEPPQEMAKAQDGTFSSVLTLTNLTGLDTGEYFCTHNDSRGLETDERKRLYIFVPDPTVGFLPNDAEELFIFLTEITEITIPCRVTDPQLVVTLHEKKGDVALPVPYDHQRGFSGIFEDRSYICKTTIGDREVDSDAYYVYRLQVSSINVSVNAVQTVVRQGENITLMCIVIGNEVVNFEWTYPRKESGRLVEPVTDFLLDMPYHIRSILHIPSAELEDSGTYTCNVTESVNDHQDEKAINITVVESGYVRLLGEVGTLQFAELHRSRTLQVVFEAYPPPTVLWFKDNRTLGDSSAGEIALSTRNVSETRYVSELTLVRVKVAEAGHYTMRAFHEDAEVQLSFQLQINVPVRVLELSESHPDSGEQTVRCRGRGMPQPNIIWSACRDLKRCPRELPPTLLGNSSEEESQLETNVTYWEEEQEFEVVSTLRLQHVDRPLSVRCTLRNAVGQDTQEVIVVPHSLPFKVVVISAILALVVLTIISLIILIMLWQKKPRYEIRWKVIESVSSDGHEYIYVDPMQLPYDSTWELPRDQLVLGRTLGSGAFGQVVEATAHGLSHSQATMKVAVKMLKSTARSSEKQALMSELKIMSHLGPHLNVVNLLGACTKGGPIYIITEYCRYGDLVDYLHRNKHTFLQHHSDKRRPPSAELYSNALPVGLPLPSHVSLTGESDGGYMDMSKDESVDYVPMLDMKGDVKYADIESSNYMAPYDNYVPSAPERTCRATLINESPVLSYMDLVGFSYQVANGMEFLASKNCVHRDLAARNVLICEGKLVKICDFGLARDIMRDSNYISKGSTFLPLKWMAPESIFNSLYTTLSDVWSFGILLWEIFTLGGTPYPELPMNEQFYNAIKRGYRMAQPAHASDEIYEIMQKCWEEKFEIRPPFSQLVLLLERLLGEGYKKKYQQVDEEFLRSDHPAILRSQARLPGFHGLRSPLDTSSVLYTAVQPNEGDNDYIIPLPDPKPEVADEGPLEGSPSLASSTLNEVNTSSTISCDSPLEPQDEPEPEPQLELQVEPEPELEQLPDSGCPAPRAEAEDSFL

| Structure (SMILES) | PDGF Kinase %Inhibition (PDGF-R) | Biochem EGFR %Inhibition (EGFR) | Met Kinase % Inhibition (MET) |
| --- | --- | --- | --- |
| CC(C)(C)c1cc(C=C2C(=O)Nc3c(Br)cc(Br)cc32)cc([N+](=O)[O-])c1O [10722/A02] | 28.9% | 23.7% | 44.9% |
| O=C1Nc2ccc(I)cc2C1=Cc1ccc(C(F)(F)F)cc1 [10722/B11] | 25.5% | -15.5% | 83.0% |
| Cc1cc(C)c(C=C2C(=O)Nc3ccc(S(=O)(=O)N4CCOCC4)cc32)[nH]1 [10721/F08] | – | 37.3% | 76.1% |
| O=C1Nc2ccc(S(=O)(=O)Nc3ccc(C(F)(F)F)cc3)cc2C1=Cc1cc2c([nH]1)CCCC2 [10721/E05] | – | 61.3% | 69.9% |
| CNS(=O)(=O)c1ccc2c(c1)C(=Cc1cc(C)c(O)c(C)c1)C(=O)N2 [10722/D07] | 25.5% | -2.8% | 42.6% |
| O=C1Nc2ccc(S(=O)(=O)Nc3ccc(C(F)(F)F)cc3)cc2C1=Cc1ccc([N+](=O)[O-])s1 [10722/E04] | 30.6% | 1.4% | 52.6% |
| CCCCN(CCCC)c1ccc(C=C2C(=O)Nc3ccc(S(=O)(=O)NC)cc32)cc1 [10722/D10] | 41.5% | -0.6% | 40.5% |
| CC(C)(C)c1cc(C=C2C(=O)Nc3ccc(S(=O)(=O)N4CCOCC4)cc32)ccc1O [10721/F09] | – | 7.0% | 52.5% |
| CC(C)(C)c1cc(C=C2C(=O)Nc3ccc(S(=O)(=O)Nc4ccc(C(F)(F)F)cc4)cc32)cc(C(C)(C)C)c1O [10721/E11] | – | 32.1% | 31.3% |
| CNS(=O)(=O)c1ccc2c(c1)C(=Cc1c[nH]c3ccccc13)C(=O)N2 [10717/D06] | – | -23.4% | 33.8% |
| CCCCN(CCCC)c1ccc(C=C2C(=O)Nc3ccc(S(=O)(=O)Nc4ccc(C(F)(F)F)cc4)cc32)cc1 [10722/E10] | 31.8% | -13.3% | 86.6% |
| CNS(=O)(=O)c1ccc2c(c1)C(=Cc1ccc(F)cc1)C(=O)N2 [10717/D05] | – | -2.8% | 23.8% |
| O=C1Nc2c(Br)cc(Br)cc2C1=Cc1csc([N+](=O)[O-])c1 [10722/A09] | 21.5% | 16.8% | 86.5% |
| CNS(=O)(=O)c1ccc2c(c1)C(=Cc1csc([N+](=O)[O-])c1)C(=O)N2 [10722/D09] | 30.6% | -17.2% | 52.2% |
| O=C1Nc2ccc(I)cc2C1=Cc1ccc(C(=O)O)cc1 [10722/B05] | 21.5% | 9.3% | 67.2% |
| Cc1cc(C=C2C(=O)Nc3ccc(S(=O)(=O)Nc4ccc(C(F)(F)F)cc4)cc32)sc1C [10721/E04] | – | 48.5% | 87.3% |
| CC(C)(C)c1cc(C=C2C(=O)Nc3ccc(CCCl)cc32)ccc1O [10721/G09] | – | 14.9% | 5.1% |
| CNS(=O)(=O)c1ccc2c(c1)C(=Cc1cccs1)C(=O)N2 [10717/D03] | – | -1.4% | 11.1% |
| O=C1Nc2ccc(CCCl)cc2C1=Cc1cc2c([nH]1)CCCC2 [10721/G05] | – | 7.7% | 8.6% |
| CC(C)(C)c1cc(C=C2C(=O)Nc3ccc(CCCl)cc32)cc(C(C)(C)C)c1O [10721/G11] | – | 0.4% | -0.0% |
| O=C1Nc2ccc(S(=O)(=O)Nc3ccc(C(F)(F)F)cc3)cc2C1=Cc1ccc(F)cc1F [10722/E06] | 32.9% | 7.6% | 71.6% |
| CNS(=O)(=O)c1ccc2c(c1)C(=Cc1ccc(Br)cc1)C(=O)N2 [10717/D08] | – | -7.8% | 16.0% |
| Cn1c(C=C2C(=O)Nc3ccc(S(=O)(=O)N4CCOCC4)cc32)nc2ccccc21 [10721/F02] | – | 11.0% | 27.8% |
| Cc1cc(C=C2C(=O)Nc3c(Br)cc(Br)cc32)cc(C)c1O [10722/A07] | 23.8% | 29.9% | 64.1% |
| O=C1Nc2ccc(S(=O)(=O)N3CCOCC3)cc2C1=Cc1cc([N+](=O)[O-])cc(CCl)c1O [10721/F06] | – | 21.7% | 80.3% |
| CNS(=O)(=O)c1ccc2c(c1)C(=Cc1cccn1C)C(=O)N2 [10717/D04] | – | 4.9% | 21.0% |
| O=C1Nc2ccc(S(=O)(=O)Nc3ccc(C(F)(F)F)cc3)cc2C1=Cc1cc([N+](=O)[O-])cc(CCl)c1O [10721/E06] | – | 91.5% | 81.0% |

| Structure (SMILES) | PDGF Kinase %Inhibition (PDGF-R) | Biochem EGFR %Inhibition (EGFR) | Met Kinase % Inhibition (MET) |
| --- | --- | --- | --- |
| Cn1cc(Cl)c(C=C2C(=O)Nc3ccc(CCCl)cc32)n1 [10721/G03] | – | 23.4% | 25.3% |
| Cc1cc(C)c(C=C2C(=O)Nc3ccc(CCCl)cc32)[nH]1 [10721/G08] | – | 12.8% | -2.4% |
| CNS(=O)(=O)c1ccc2c(c1)C(=Cc1cc(C(C)(C)C)c(O)c(C(C)(C)C)c1)C(=O)N2 [10721/D11] | – | 22.2% | 23.2% |
| Cc1cc(C)c(C=C2C(=O)Nc3ccc(S(=O)(=O)Nc4ccc(C(F)(F)F)cc4)cc32)[nH]1 [10721/E08] | – | 29.8% | 39.5% |
| CCOc1ccccc1C=C1C(=O)Nc2ccc(S(=O)(=O)NC)cc21 [10717/D02] | – | 10.1% | 28.6% |
| CC(C)(C)c1cc(C=C2C(=O)Nc3ccc(S(=O)(=O)N4CCOCC4)cc32)cc(Br)c1O [10721/F10] | – | 7.5% | 79.9% |
| CC(C)(C)c1cc(C=C2C(=O)Nc3ccc(S(=O)(=O)N4CCOCC4)cc32)cc(C(C)(C)C)c1O [10721/F11] | – | 95.9% | 78.2% |
| CC(C)(C)c1cc(C=C2C(=O)Nc3ccc(CCCl)cc32)cc(Br)c1O [10721/G10] | – | 2.1% | 12.0% |
| Cn1cc(Cl)c(C=C2C(=O)Nc3ccc(S(=O)(=O)Nc4ccc(C(F)(F)F)cc4)cc32)n1 [10721/E03] | – | 25.1% | 12.3% |
| O=C1Nc2c(Br)cc(Br)cc2C1=Cc1cccs1 [10717/A03] | – | 1.0% | 54.6% |
| Cc1cc(C=C2C(=O)Nc3ccc(S(=O)(=O)N4CCOCC4)cc32)sc1C [10721/F04] | – | 0.0% | 26.0% |
| CC(C)(C)c1cc(C=C2C(=O)Nc3ccc(S(=O)(=O)Nc4ccc(C(F)(F)F)cc4)cc32)cc(Br)c1O [10721/E10] | – | 19.9% | 55.7% |
| CNS(=O)(=O)c1ccc2c(c1)C(=Cc1ccc(C)s1)C(=O)N2 [10717/D07] | – | -4.5% | 16.8% |
| Cc1cc(C=C2C(=O)Nc3ccc(CCCl)cc32)sc1C [10721/G04] | – | 64.6% | 90.3% |
| O=C1Nc2ccc(CCCl)cc2C1=Cc1ccc(Cl)s1 [10721/G07] | – | 14.7% | 10.0% |
| O=C1Nc2ccc(S(=O)(=O)Nc3ccc(C(F)(F)F)cc3)cc2C1=Cc1ccc(Cl)s1 [10721/E07] | – | 37.7% | 43.6% |
| O=C1Nc2ccc(CCCl)cc2C1=Cc1cc([N+](=O)[O-])cc(CCl)c1O [10721/G06] | – | 23.2% | 39.5% |
| Cn1cc(Cl)c(C=C2C(=O)Nc3ccc(S(=O)(=O)N4CCOCC4)cc32)n1 [10721/F03] | – | 7.0% | 40.6% |
| O=C1Nc2ccc(S(=O)(=O)N3CCOCC3)cc2C1=Cc1ccc(Cl)s1 [10721/F07] | – | 3.5% | 55.7% |
| CC(C)(C)c1cc(C=C2C(=O)Nc3ccc(S(=O)(=O)Nc4ccc(C(F)(F)F)cc4)cc32)ccc1O [10721/E09] | – | 42.5% | 0.7% |
| CNS(=O)(=O)c1ccc2c(c1)C(=Cc1c(O)cccc1OC)C(=O)N2 [10717/D10] | – | 3.5% | 15.6% |
| Cn1c(C=C2C(=O)Nc3ccc(S(=O)(=O)Nc4ccc(C(F)(F)F)cc4)cc32)nc2ccccc21 [10721/E02] | – | -9.5% | 38.8% |
| CNS(=O)(=O)c1ccc2c(c1)C(=Cc1ccc[nH]1)C(=O)N2 [10717/D09] | – | 6.8% | 29.1% |
| O=C1Nc2ccc(S(=O)(=O)N3CCOCC3)cc2C1=Cc1cc2c([nH]1)CCCC2 [10721/F05] | – | 20.5% | 67.8% |
| CNS(=O)(=O)c1ccc2c(c1)C(=Cc1cc(Br)c(O)c(C(C)(C)C)c1)C(=O)N2 [10721/D10] | – | 3.3% | 13.4% |
| Cn1c(C=C2C(=O)Nc3ccc(CCCl)cc32)nc2ccccc21 [10721/G02] | – | 23.6% | 7.9% |

Reference: patent publication EP1247803A2, “Indolinone compounds suitable for modulation of protein kinases” (Sugen, Inc., priority 1996, dated 1998)
